Data reported in the kinase profiling compilation of Christmann-Franck et al. (2016).

Key:
Test in all cases: radiometric filter-binding kinase assay, Kinase HotSpot
Conditions in all cases: compound 0.5 µM; ATP 10 µM
[1] = biological target: NTRK2 (human) (UniProt Q16620)
[2] = biological target: GSK3A (human) (UniProt P49840)
[3] = biological target: CDK9 CCNK (human) (UniProt O75909+P50750)
[4] = biological target: ULK3 (human) (UniProt Q6PHR2)
[5] = biological target: AXL (human) (UniProt P30530)
[6] = biological target: PIM2 (human) (UniProt Q9P1W9)
[7] = biological target: PAK7 (human) (UniProt Q9P286)
[8] = biological target: TGFBR2 (human) (UniProt P37173)
[9] = biological target: PRKACG (human) (UniProt P22612)
[10] = biological target: MAPK3 (human) (UniProt P27361)
[11] = biological target: STK33 (human) (UniProt Q9BYT3)
[12] = biological target: STK38 (human) (UniProt Q15208)
[13] = biological target: DSTYK (human) (UniProt Q6XUX3)
[14] = biological target: SLK (human) (UniProt Q9H2G2)
[15] = biological target: MET (human) (UniProt P08581)
[16] = biological target: PRKACA (human) (UniProt P17612)
[17] = biological target: MST1R (human) (UniProt Q04912)
[18] = biological target: IGF1R (human) (UniProt P08069)
[19] = biological target: CDC42BPB (human) (UniProt Q9Y5S2)
[20] = biological target: PIM3 (human) (UniProt Q86V86)
[21] = biological target: TLK2 (human) (UniProt Q86UE8)
[22] = biological target: PAK1 (human) (UniProt Q13153)
[23] = biological target: ALK (human) (UniProt Q9UM73)
[24] = biological target: CLK4 (human) (UniProt Q9HAZ1)
[25] = biological target: EPHA6 (human) (UniProt Q9UF33)
[26] = biological target: MELK (human) (UniProt Q14680)
[27] = biological target: EGFR (human) (UniProt P00533)
[28] = biological target: WNK2 (human) (UniProt Q9Y3S1)
[29] = biological target: STK16 (human) (UniProt O75716)
[30] = biological target: EPHA4 (human) (UniProt P54764)
[31] = biological target: AURKB (human) (UniProt Q96GD4)
[32] = biological target: BRAF (human) (UniProt P15056)
[33] = biological target: CAMK2A (human) (UniProt Q9UQM7)
[34] = biological target: CLK1 (human) (UniProt P49759)
[35] = biological target: MYO3B (human) (UniProt Q8WXR4)
[36] = biological target: PASK (human) (UniProt Q96RG2)
[37] = biological target: LCK (human) (UniProt P06239)
[38] = biological target: RPS6KB1 (human) (UniProt P23443)
[39] = biological target: CDK7 CCNH MNAT1 (human) (UniProt P50613+P51948+P51946)
[40] = biological target: DYRK2 (human) (UniProt Q92630)

Chain of WNK2 (human) (Q9Y3S1 whole entry, looked up): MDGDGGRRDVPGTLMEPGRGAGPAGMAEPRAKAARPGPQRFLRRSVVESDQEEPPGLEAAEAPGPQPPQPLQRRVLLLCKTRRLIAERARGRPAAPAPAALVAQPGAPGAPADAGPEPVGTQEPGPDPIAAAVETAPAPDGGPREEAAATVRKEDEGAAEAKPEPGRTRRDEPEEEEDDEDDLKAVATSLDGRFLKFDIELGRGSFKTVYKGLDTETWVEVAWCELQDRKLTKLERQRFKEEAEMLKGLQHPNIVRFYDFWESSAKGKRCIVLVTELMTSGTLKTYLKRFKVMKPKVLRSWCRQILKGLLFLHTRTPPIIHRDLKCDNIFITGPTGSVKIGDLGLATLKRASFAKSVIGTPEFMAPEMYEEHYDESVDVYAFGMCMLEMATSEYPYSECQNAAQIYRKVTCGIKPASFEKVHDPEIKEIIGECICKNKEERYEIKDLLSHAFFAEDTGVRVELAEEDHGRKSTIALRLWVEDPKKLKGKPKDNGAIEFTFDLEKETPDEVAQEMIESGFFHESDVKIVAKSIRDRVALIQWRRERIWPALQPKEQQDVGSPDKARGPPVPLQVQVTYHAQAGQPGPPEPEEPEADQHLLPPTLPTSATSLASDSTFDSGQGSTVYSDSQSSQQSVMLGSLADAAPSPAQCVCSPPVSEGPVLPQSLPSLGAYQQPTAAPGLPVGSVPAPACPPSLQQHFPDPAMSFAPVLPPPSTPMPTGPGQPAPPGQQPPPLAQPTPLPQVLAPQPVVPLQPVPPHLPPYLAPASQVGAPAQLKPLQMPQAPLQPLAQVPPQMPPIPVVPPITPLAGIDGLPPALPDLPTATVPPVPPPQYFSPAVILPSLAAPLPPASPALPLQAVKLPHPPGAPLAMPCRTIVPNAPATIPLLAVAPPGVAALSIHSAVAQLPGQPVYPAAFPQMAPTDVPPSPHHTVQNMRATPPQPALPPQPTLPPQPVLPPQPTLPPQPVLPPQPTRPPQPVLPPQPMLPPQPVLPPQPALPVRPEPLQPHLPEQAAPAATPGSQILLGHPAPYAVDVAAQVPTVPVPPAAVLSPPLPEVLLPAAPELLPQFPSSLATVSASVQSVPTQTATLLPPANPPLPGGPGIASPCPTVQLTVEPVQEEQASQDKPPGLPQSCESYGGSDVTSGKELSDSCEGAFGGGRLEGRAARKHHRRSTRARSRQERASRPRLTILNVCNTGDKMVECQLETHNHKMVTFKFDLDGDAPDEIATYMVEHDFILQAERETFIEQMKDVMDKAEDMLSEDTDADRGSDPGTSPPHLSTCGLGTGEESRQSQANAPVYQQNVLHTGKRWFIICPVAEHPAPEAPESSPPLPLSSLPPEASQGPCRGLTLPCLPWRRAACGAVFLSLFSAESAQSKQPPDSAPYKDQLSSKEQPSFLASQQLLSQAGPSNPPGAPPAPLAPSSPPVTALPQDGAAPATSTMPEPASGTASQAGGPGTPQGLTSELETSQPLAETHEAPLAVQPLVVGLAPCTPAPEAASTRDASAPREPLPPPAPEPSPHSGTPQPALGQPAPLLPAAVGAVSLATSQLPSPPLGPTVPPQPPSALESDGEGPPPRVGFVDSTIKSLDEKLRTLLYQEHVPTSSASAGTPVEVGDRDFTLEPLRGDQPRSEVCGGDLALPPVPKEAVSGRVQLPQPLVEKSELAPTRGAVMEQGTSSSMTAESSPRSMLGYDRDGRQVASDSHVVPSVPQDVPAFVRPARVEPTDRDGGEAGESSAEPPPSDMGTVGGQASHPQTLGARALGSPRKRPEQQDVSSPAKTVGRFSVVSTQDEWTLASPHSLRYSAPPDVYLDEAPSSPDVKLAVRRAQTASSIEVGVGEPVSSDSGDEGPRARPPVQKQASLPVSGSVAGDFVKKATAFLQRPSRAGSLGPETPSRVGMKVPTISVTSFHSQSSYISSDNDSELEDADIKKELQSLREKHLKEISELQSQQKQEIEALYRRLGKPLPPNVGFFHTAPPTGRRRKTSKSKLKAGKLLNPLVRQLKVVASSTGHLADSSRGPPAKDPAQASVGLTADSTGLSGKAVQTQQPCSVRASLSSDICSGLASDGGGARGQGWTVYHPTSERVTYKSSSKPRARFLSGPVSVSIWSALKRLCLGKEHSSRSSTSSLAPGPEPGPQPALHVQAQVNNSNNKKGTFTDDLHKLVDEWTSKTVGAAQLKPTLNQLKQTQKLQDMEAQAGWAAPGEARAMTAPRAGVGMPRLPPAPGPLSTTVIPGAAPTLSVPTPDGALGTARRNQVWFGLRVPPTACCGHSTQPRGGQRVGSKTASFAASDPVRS
Chain of MELK (human) (Q14680 whole entry, looked up): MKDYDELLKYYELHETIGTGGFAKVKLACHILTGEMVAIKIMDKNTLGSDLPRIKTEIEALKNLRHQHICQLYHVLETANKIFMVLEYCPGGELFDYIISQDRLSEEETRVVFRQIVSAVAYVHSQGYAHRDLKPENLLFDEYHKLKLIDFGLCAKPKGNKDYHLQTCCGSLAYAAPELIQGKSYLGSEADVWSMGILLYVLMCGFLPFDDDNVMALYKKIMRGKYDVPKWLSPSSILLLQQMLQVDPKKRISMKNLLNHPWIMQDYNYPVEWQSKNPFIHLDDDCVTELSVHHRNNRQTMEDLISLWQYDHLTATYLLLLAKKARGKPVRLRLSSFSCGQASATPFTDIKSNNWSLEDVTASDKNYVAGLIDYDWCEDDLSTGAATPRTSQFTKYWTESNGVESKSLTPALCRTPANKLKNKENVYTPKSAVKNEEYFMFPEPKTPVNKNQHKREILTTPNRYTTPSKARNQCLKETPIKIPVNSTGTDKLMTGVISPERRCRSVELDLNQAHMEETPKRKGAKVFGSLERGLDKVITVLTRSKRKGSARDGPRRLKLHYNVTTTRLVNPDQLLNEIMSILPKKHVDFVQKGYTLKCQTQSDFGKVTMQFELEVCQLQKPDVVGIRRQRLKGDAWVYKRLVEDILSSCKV
Chain of CDK9 CCNK (human) (O75909 whole entry, looked up): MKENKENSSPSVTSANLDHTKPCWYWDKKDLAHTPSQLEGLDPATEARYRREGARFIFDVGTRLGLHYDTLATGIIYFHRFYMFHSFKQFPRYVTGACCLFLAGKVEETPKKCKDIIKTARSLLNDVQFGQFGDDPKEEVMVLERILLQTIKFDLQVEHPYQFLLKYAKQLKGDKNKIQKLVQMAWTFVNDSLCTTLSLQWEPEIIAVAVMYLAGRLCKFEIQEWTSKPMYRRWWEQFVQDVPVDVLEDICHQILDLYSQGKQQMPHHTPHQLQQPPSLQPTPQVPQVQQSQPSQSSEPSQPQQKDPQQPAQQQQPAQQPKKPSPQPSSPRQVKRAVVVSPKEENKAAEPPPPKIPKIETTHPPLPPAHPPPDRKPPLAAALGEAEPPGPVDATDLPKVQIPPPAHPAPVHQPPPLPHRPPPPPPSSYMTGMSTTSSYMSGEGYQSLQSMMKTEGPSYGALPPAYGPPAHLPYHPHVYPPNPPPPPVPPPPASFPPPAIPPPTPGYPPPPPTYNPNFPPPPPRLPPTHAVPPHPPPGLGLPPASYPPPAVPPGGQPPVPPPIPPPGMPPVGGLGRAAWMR
Chain of CDK9 CCNK (human) (P50750 whole entry, looked up): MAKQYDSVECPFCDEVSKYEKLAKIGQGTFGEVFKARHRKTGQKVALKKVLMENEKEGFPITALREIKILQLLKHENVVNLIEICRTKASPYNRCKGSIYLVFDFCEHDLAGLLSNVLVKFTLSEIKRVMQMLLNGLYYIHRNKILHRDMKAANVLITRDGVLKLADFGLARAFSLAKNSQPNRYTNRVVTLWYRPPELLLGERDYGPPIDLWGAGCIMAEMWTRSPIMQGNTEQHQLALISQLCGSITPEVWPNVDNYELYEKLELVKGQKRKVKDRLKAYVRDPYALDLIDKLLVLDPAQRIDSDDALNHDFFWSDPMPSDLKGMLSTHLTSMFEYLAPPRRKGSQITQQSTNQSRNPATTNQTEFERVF
Chain of NTRK2 (human) (Q16620 whole entry, looked up): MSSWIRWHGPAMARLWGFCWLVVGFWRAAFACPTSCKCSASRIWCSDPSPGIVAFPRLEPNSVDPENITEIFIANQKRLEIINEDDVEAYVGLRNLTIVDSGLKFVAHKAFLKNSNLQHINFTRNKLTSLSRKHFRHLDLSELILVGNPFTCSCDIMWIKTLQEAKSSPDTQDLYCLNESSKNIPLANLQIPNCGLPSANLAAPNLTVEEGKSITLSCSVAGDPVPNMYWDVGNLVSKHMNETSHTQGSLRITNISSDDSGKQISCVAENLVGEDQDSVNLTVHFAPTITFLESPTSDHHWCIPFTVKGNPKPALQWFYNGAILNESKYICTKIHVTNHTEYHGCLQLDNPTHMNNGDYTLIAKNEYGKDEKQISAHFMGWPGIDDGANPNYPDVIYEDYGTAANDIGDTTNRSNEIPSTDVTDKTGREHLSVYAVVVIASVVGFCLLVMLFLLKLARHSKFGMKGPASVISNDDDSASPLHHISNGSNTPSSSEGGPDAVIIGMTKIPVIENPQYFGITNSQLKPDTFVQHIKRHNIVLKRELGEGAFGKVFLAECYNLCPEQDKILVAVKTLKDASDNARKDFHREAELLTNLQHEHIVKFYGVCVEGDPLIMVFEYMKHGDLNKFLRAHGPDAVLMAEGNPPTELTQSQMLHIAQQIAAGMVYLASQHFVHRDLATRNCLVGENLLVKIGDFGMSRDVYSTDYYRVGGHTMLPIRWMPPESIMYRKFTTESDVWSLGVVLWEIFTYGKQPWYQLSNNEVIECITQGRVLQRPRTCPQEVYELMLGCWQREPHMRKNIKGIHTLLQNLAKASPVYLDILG
Chain of PIM2 (human) (Q9P1W9 whole entry, looked up): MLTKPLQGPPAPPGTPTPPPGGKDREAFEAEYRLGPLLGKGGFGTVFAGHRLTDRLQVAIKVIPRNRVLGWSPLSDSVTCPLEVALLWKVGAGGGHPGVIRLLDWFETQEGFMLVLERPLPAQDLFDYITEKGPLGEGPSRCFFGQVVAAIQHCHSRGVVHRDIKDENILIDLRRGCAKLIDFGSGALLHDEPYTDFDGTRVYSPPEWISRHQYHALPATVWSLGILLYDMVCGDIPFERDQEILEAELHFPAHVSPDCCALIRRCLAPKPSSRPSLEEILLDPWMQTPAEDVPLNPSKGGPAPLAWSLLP

| SMILES | residual activity [1] | residual activity [2] | residual activity [3] | residual activity [4] | residual activity [5] | residual activity [6] | residual activity [7] | residual activity [8] | residual activity [9] | residual activity [10] | residual activity [11] | residual activity [12] | residual activity [13] | residual activity [14] | residual activity [15] | residual activity [16] | residual activity [17] | residual activity [18] | residual activity [19] | residual activity [20] | also measured |
| --- | --- | --- | --- | --- | --- | --- | --- | --- | --- | --- | --- | --- | --- | --- | --- | --- | --- | --- | --- | --- | --- |
| O=C1NC(=O)/C(=C\c2ccc3nccnc3c2)S1 | 90.7% | 88.8% | 86% | 102% | 112% | 100% | 97.4% | 108% | 99.6% | 87.8% | 66.3% | 99.6% | 89.9% | 96.3% | 91.2% | 97.2% | 97.8% | 92% | 91.3% | 67.3% | residual activity [21]: 95.2%; residual activity [22]: 96%; residual activity [23]: 93.3%; residual activity [24]: 47.5%; residual activity [25]: 82.4%; residual activity [26]: 90.7%; residual activity [27]: 81.6%; residual activity [28]: 115%; residual activity [29]: 91.9%; residual activity [30]: 96%; residual activity [31]: 101%; residual activity [32]: 95.1%; residual activity [33]: 92.3%; residual activity [34]: 80.1%; residual activity [35]: 83.8%; residual activity [36]: 87.7%; residual activity [37]: 98.6%; residual activity [38]: 91.2%; residual activity [39]: 85.2%; residual activity [40]: 39.8% |
| CN(C)C[C@H]1CCn2c(c(C3=C(c4cn(C)c5ccccc45)C(=O)NC3=O)c3ccccc32)C1 | 102% | 14.2% | 43.5% | 88.9% | 99.3% | 102% | 100% | 98.5% | 108% | 102% | 94.8% | 96.7% | 89.4% | 83.1% | 96.2% | 87.2% | 98.3% | 101% | 103% | 83.1% | residual activity [21]: 88.4%; residual activity [22]: 99.8%; residual activity [23]: 99.6%; residual activity [24]: 111%; residual activity [25]: 100%; residual activity [26]: 96.4%; residual activity [27]: 95.8%; residual activity [28]: 103%; residual activity [29]: 109%; residual activity [30]: 103%; residual activity [31]: 96.3%; residual activity [32]: 95.2%; residual activity [33]: 100%; residual activity [34]: 105%; residual activity [35]: 87.9%; residual activity [36]: 93%; residual activity [37]: 96.5%; residual activity [38]: 20%; residual activity [39]: 83%; residual activity [40]: 102% |
| COc1cc2ncnc(N3CCN(C(=O)Nc4ccc(Oc5ccccc5)cc4)CC3)c2cc1OC | 121% | 95.8% | 83.6% | 100% | 91.7% | 101% | 96.8% | 102% | 103% | 102% | 94.7% | 96.9% | 113% | 97.9% | 107% | 96% | 90.3% | 103% | 98.3% | 94.4% | residual activity [21]: 94.7%; residual activity [22]: 91.8%; residual activity [23]: 101%; residual activity [24]: 65.6%; residual activity [25]: 89.6%; residual activity [26]: 94.9%; residual activity [27]: 79.1%; residual activity [28]: 102%; residual activity [29]: 94.2%; residual activity [30]: 93.2%; residual activity [31]: 76.1%; residual activity [32]: 92.6%; residual activity [33]: 89.9%; residual activity [34]: 89.4%; residual activity [35]: 95.4%; residual activity [36]: 97.7%; residual activity [37]: 92.3%; residual activity [38]: 89.4%; residual activity [39]: 103%; residual activity [40]: 95.4% |
| COc1cc2ncc(-c3ccccc3)nc2cc1OC | 99.5% | 97.9% | 102% | 89.4% | 95.2% | 101% | 85.6% | 75% | 87.6% | 97.6% | 91.7% | 95.9% | 82.7% | 97.3% | 92.6% | 99.4% | 84.2% | 91.1% | 93.3% | 87.4% | residual activity [21]: 96.3%; residual activity [22]: 91.3%; residual activity [23]: 94.1%; residual activity [24]: 102%; residual activity [25]: 90.4%; residual activity [26]: 88.9%; residual activity [27]: 82.9%; residual activity [28]: 104%; residual activity [29]: 93.5%; residual activity [30]: 99.3%; residual activity [31]: 74.4%; residual activity [32]: 93.2%; residual activity [33]: 99.5%; residual activity [34]: 102%; residual activity [35]: 84.6%; residual activity [36]: 98.9%; residual activity [37]: 93.5%; residual activity [38]: 89%; residual activity [39]: 109%; residual activity [40]: 95.9% |
